Patent US20250197407A1 (Jazz Pharmaceuticals Ireland Limited, priority 2022, published 2025)

target: SOS1/KRAS WT (Homo sapiens (Human), UniProt Q07889); test: SOS1/KRAS WT HTRF binding assay (FRET-based protein-protein interaction); conditions: inhibition of His6-SOS1 (aa564-1049, 40 nM) binding to GST-KRAS-WT (aa1-188, 40 nM); at least two independent replicates
Method in brief: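 GST-KRAS WT (aa1-188, 40 nM) and His6-SOS1 exchange domain (aa564-1049, 40 nM) were incubated 60 min at room temperature with compound dose response in HEPES pH7.3 buffer with 10 mM EDTA and 100 mM KF. Anti-GST-Eu(K)/anti-6His-XL665 HTRF was read after 4 hr, and IC50 came from a four-parameter fit (≥2 replicates).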

Chain of SOS1/KRAS WT (Q07889 564-1049): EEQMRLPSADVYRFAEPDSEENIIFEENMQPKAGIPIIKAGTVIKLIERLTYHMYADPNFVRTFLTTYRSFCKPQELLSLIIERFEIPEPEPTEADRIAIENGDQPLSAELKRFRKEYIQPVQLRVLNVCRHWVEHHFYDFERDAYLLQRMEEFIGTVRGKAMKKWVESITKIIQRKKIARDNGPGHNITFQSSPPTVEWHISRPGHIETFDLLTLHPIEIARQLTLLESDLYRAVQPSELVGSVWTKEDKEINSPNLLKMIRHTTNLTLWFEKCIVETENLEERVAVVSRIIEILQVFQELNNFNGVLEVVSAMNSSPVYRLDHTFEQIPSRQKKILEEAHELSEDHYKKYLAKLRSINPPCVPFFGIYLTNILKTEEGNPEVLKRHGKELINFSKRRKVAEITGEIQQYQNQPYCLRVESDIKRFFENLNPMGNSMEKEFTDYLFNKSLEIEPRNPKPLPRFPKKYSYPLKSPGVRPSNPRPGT

Row | SMILES | SOS1/KRAS WT HTRF Binding assay pIC50
1 | COCC1(C)C(=O)N(C)c2cc3c(N[C@H](C)c4cccc(C(F)(F)C(C)(C)O)c4)nnc(C)c3cc21 (stereo partly drawn) [Compound 91, D8-[[(1R)-1-[3-(1,1-difluoro-2-hydroxy-2-methyl-propyl)phenyl]ethyl]amino]-3-(methoxymethyl)-1,3,5-trimethyl-pyrrolo[3,2-g]phthalazin-2-one] | 7.75

same assay, conditions: inhibition of His6-SOS1 (aa564-1049, 40 nM) binding to GST-KRAS-WT (aa1-188, 40 nM); at least two independent replicates; read-out: SOS1/KRAS WT HTRF Binding assay pIC50 (converted)

Row | SMILES | IC50
2 | Cc1nnc(N[C@H](C)c2cccc(C(F)(F)CO)c2)c2cc3c(cc12)n(C)c(=O)n3C(C)(C)C [Compound 80, 3-tert-butyl-1,8-dimethyl-5-[[(1R)-1-[3-(1,1-difluoro-2-hydroxy-ethyl)phenyl]ethyl]amino]imidazo [4,5-g]phthalazin-2-one] | 6.17 nM
3 | Cc1nnc(N[C@H](C)c2cccc(C(F)(F)C(C)(C)O)c2)c2cc3c(cc12)C(C)(C)C(=O)N3C(C)C [Compound 81, 1-isopropyl-3,3,5-trimethyl-8-[[(1R)-1-[3-(1,1-difluoro-2-hydroxy-2-methyl-propyl)phenyl]ethyl]amino]pyrrol o[2,3-g]phthalazin-2-one] | 8.51 nM
4 | Cc1nnc(N[C@H](C)c2cccc(C(F)(F)CO)c2)c2cc3c(cc12)C(C)(C)C(=O)N3C(C)C [Compound 82, 1-isopropyl-3,3,5-trimethyl-8-[[(1R)-1-[3-(1,1-difluoro-2-hydroxy-ethyl)phenyl]ethyl]amino]pyrrolo [2,3-g]phthalazin-2-one] | 9.33 nM
5 | Cc1nnc(N[C@H](C)c2cccc(C(F)(F)C(C)(C)O)c2)c2cc3c(cc12)n(C)c(=O)n3C1(C)CC1 [Compound 83, 1,8-dimethyl-3-(1-methylcyclopropyl)-5-[[(1R)-1-[3-(1,1-difluoro-2-hydroxy-2-methyl-propyl)phenyl]ethyl]amino]imidazo [4,5-g]phthalazin-2-one] | 7.94 nM
6 | Cc1nnc(N[C@H](C)c2cccc(C(F)(F)C(C)(C)O)c2)c2cc3c(cc12)C1(CCOCC1)C(=O)N3C [Compound 84, 1,5-dimethyl-8-[[(1R)-1-[3-(1,1-difluoro-2-hydroxy-2-methyl-propyl)phenyl]ethyl]amino]spiro [pyrrolo[2,3-g]phthalazine-3,4′-tetrahydropyran]-2-one] | 8.91 nM
7 | Cc1c([C@@H](C)Nc2nnc(C)c3cc4c(cc23)n(C(C)C)c(=O)n4C)cccc1C(F)(F)CO [Compound 85, 3-isopropyl-1,8-dimethyl-5-[[(1R)-1-[3-(1,1-difluoro-2-hydroxy-ethyl)-2-methyl-phenyl]ethyl]amino]imidazo[4,5-g]phthalazin-2-one] | 8.32 nM
8 | COCC1(C)C(=O)N(C)c2cc3c(N[C@H](C)c4cccc(C(F)(F)C(C)(C)O)c4F)nnc(C)c3cc21 (stereo partly drawn) [Compound 86, D8-[[(1R)-1-[3-(1,1-difluoro-2-hydroxy-2-methyl-propyl)-2-fluoro-phenyl]ethyl]amino]-3-(methoxymethyl)-1,3,5-trimethyl-pyrrolo[3,2-g]phthalazin-2-one] | 10.2 nM
9 | Cc1nnc(N[C@H](C)c2cccc(C(F)(F)C(C)(C)O)c2)c2cc3c(cc12)n(C)c(=O)n3C(C)C [Compound 87, 3-isopropyl-1,8-dimethyl-5-[[(1R)-1-[3-(1,1-difluoro-2-hydroxy-2-methyl-propyl)phenyl]ethyl]amino]imidazo [4,5-g]phthalazin-2-one] | 8.51 nM
10 | Cc1nnc(N[C@H](C)c2cccc(C(F)(F)CO)c2)c2cc3c(cc12)C1(CCOCC1)C(=O)N3C [Compound 88, 1,5-dimethyl-8-[[(1R)-1-[3-(1,1-difluoro-2-hydroxy-ethyl)phenyl]ethyl]amino]spiro [pyrrolo[2,3-g]phthalazine-3,4′-tetrahydropyran]-2-one] | 7.76 nM
11 | Cc1nnc(N[C@H](C)c2cccc(C(F)(F)CO)c2F)c2cc3c(cc12)C1(CCOCC1)C(=O)N3C [Compound 89, 1,5-dimethyl-8-[[(1R)-1-[3-(1,1-difluoro-2-hydroxy-ethyl)-2-fluoro-phenyl]ethyl]amino]spiro[pyrrolo [2,3-g]phthalazine-3,4′-tetrahydropyran]-2-one] | 8.13 nM
12 | COC1(C)C(=O)N(C)c2cc3c(N[C@H](C)c4cccc(C(F)(F)C(C)(C)O)c4)nnc(C)c3cc21 (stereo partly drawn) [Compound 90, 3-methoxy-1,3,5-trimethyl-8-[[(1R)-1-[3-(1,1-difluoro-2-hydroxy-2-methyl-propyl)phenyl]ethyl]amino]pyrrolo [2,3-g]phthalazin-2-one] | 10.7 nM
13 | COC1(C)C(=O)N(C)c2cc3c(N[C@H](C)c4cccc(C(F)(F)CO)c4C)nnc(C)c3cc21 (stereo partly shown) [Compound 92] | 9.77 nM
14 | COC1(C)C(=O)N(C)c2cc3c(N[C@H](C)c4cccc(C(F)(F)CO)c4F)nnc(C)c3cc21 (stereo partly drawn) [Compound 93, 3-methoxy-1,3,5-trimethyl-8-[[(1R)-1-[3-(1,1-difluoro-2-hydroxy-ethyl)-2-fluoro-phenyl]ethyl]amino]pyrrolo[2,3-g]phthalazin-2-one] | 7.41 nM
15 | COCC1(C)C(=O)N(C)c2cc3c(N[C@H](C)c4cccc(C(F)(F)CO)c4F)nnc(C)c3cc21 (stereo partly drawn) [Compound 94, 8-[[(1R)-1-[3-(1,1-difluoro-2-hydroxy-ethyl)-2-fluoro-phenyl]ethyl]amino]-3-(methoxymethyl)-1,3,5-trimethyl-pyrrolo[3,2-g]phthalazin-2-one] | 8.91 nM
16 | Cc1nnc(N[C@H](C)c2cccc(C(F)(F)CO)c2)c2cc3c(cc12)N(C)C(=O)C3(C)C [Compound 95, 1,3,3,8-tetramethyl-5-[[(1R)-1-[3-(1,1-difluoro-2-hydroxy-ethyl)phenyl]ethyl]amino]pyrrolo [3,2-g]phthalazin-2-one] | 7.41 nM
17 | Cc1nnc(N[C@H](C)c2cccc(C(F)(F)C(C)(C)O)c2)c2cc3c(cc12)N(C)C(=O)C3(C)C [Compound 96, 1,3,3,8-tetramethyl-5-[[(1R)-1-[3-(1,1-difluoro-2-hydroxy-2-methyl-propyl)phenyl]ethyl]amino]pyrrolo [3,2-g]phthalazin-2-one] | 13.5 nM
18 | Cc1c([C@@H](C)Nc2nnc(C)c3cc4c(cc23)C(C)(C)C(=O)N4C)cccc1C(F)(F)CO [Compound 97, 1,3,3,8-tetramethyl-5-[[(1R)-1-[3-(1,1-difluoro-2-hydroxy-ethyl)-2-methyl-phenyl]ethyl]amino]pyrrolo[3,2-g]phthalazin-2-one] | 13.2 nM
19 | Cc1nnc(N[C@H](C)c2cccc(C(F)(F)C(C)(C)O)c2F)c2cc3c(cc12)N(C)C(=O)C3(C)C [Compound 98, 1,3,3,8-tetramethyl-5-[[(1R)-1-[3-(1,1-difluoro-2-hydroxy-2-methyl-propyl)-2-fluoro-phenyl]ethyl]amino]pyrrolo[3,2-g]phthalazin-2-one] | 12 nM
20 | Cc1nnc(N[C@H](C)c2cccc(C(F)(F)CO)c2F)c2cc3c(cc12)N(C)C(=O)C3(C)C [Compound 99, 1,3,3,8-tetramethyl-5-[[(1R)-1-[3-(1,1-difluoro-2-hydroxy-ethyl)-2-fluoro-phenyl]ethyl]amino]pyrrolo[3,2-g]phthalazin-2-one] | 8.13 nM
21 | Cc1c([C@@H](C)Nc2nnc(C)c3cc4c(cc23)n(C(C)(C)C)c(=O)n4C)cccc1C(F)(F)CO [Compound 100, 3-tert-butyl-1,8-dimethyl-5-[[(1R)-1-[3-(1,1-difluoro-2-hydroxy-ethyl)-2-methyl-phenyl]ethyl]amino]imidazo[4,5-g]phthalazin-2-one] | 10 nM
22 | COC1(C)C(=O)N(C)c2cc3c(N[C@H](C)c4cccc(C(F)(F)CO)c4)nnc(C)c3cc21 (stereo partly drawn) [Compound 101, 3-methoxy-1,3,5-trimethyl-8-[[(1R)-1-[3-(1,1-difluoro-2-hydroxy-ethyl)phenyl]ethyl]amino]pyrrolo [2,3-g]phthalazin-2-one] | 10 nM
23 | COC1(C)C(=O)N(C)c2cc3c(N[C@H](C)c4cccc(C(F)(F)C(C)(C)O)c4C)nnc(C)c3cc21 (stereo partly drawn) [Compound 102, 3-methoxy-1,3,5-trimethyl-8-[[(1R)-1-[3-(1,1-difluoro-2-hydroxy-2-methyl-propyl)-2-methyl-phenyl]ethyl]amino]pyrrolo[2,3-g]phthalazin-2-one] | 8.32 nM
24 | Cc1nnc(N[C@H](C)c2cccc(C(F)(F)C(C)(C)O)c2)c2cc3c(cc12)n(C)c(=O)n3C(C)(C)C [Compound 103, 3-tert-butyl-1,8-dimethyl-5-[[(1R)-1-[3-(1,1-difluoro-2-hydroxy-2-methyl-propyl)phenyl]ethyl]amino]imidazo [4,5-g]phthalazin-2-one] | 7.94 nM
25 | Cc1c([C@@H](C)Nc2nnc(C)c3cc4c(cc23)N(C)C(=O)C42CCOCC2)cccc1C(F)(F)C(C)(C)O [Compound 104, 1,5-dimethyl-8-[[(1R)-1-[3-(1,1-difluoro-2-hydroxy-2-methyl-propyl)-2-methyl-phenyl]ethyl]amino]spiro[pyrrolo[2,3-g]phthalazine-3,4′-tetrahydropyran]-2-one] | 24.5 nM
26 | COCC1(C)C(=O)N(C)c2cc3c(N[C@H](C)c4cccc(C(F)(F)CO)c4C)nnc(C)c3cc21 (stereo partly drawn) [Compound 105, 8-[[(1R)-1-[3-(1,1-difluoro-2-hydroxy-ethyl)-2-methyl-phenyl]ethyl]amino]-3-(methoxymethyl)-1,3,5-trimethyl-pyrrolo[3,2-g]phthalazin-2-one] | 10.7 nM
27 | COCC1(C)C(=O)N(C)c2cc3c(N[C@H](C)c4cccc(C(F)(F)CO)c4)nnc(C)c3cc21 (stereo partly drawn) [Compound 106, 8-[[(1R)-1-[3-(1,1-difluoro-2-hydroxy-ethyl)phenyl]ethyl]amino]-3-(methoxymethyl)-1,3,5-trimethyl-pyrrolo[3,2-g]phthalazin-2-one] | 12 nM
28 | Cc1nnc(N[C@H](C)c2cc(F)cc(C(F)(F)CO)c2)c2cc3c(cc12)C(C)(C)C(=O)N3C [Compound 107, 1,3,3,5-tetramethyl-8-[[(1R)-1-[3-(1,1-difluoro-2-hydroxy-ethyl)-5-fluoro-phenyl]ethyl]amino]pyrrolo[2,3-g]phthalazin-2-one] | 18.6 nM
